From patent US20250163119A1, “COMPOUNDS FOR THE TREATMENT OF DIABETES OR OBESITY” (Eli Lilly and Company, priority 2023, published 2025)
*1 amine or outer side, *2 acyl side, *3 side chain or, on linkers, in order; H or OH if unused. Where a SMILES comes first, the peptide text is derived from it. Side-chain parts run from the residue outwards. [ ]: non-standard residue; d: D form. The star is where a group is joined. C20 diacid = O=C(O)CCCCCCCCCCCCCCCCCCC(=O)*; γGlu = O=C(O)[C@H](CCC(=O)[*:2])N[*:1]; αMeL = CC(C)C[C@](C)(N)C(=O)O; AEEA = NCCOCCOCC(=O)O

Tests used:
human CRHR2 = target: T1, human CRHR2 (Homo sapiens, UniProt Q13324); assay: Human CRHR2 cAMP assay (HTRF) in HEK293 cells stably expressing human CRHR2; assay type: cell-based; settings: HEK293 cells overexpressing human CRHR2; relative EC50, maximum 10 nM human UCN2; mean ± SE; read-out: hCRHR2 cAMP EC50 (pM, ± SE)
T1 construct: expressed in transfected cells
T1 sequence (Q13324 1-438 isoform Q13324-2): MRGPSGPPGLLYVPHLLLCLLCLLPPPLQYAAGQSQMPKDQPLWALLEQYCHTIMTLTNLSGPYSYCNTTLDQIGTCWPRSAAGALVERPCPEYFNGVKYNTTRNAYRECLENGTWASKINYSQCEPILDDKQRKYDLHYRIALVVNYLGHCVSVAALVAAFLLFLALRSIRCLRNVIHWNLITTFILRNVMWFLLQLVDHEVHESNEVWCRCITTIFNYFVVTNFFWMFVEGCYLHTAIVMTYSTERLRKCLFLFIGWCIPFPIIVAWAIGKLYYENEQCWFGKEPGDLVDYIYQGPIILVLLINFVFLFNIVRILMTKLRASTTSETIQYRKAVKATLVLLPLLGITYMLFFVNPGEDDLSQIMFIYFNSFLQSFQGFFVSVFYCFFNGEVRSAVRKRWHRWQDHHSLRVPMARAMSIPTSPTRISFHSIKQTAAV
Description: (§1) The corticotropin-releasing hormone (CRH) receptor 1 and 2 (CRHR1 and CRHR2) are GPCRs that were functionally coupled to Gs proteins. Stimulation of these receptors results in an increased production of intracellular cAMP, which can be detected using standard in vitro technologies. In vitro activity of peptides was measured by the amount of cAMP formed in human CRHR1 and CRHR2 overexpressed cells.
(§2) Human CRHR1 and CRHR2 receptors were stably expressed in human embryonic kidney cells (HEK293) under control of a pcDNA expression vector. The HEK293 cell line was cultured in DMEM 1× (Gibco, 93-0152DK) supplemented with 10% FBS, 1 mM sodium pyruvate, 1×MEM NEAA, 1× GlutaMAX and 10 mM HEPES. The plasmids of human CRHR1-pQCXIP (T7364) and human CRHR2b-R2683puro (T16761) DNA were transfected into HEK293 cells using Lipo fectAMINE 3000 Transfection reagent (Invitrogen, L3000001). After 20 days under selection, the mRNA levels from different clones were measured to confirm the expression of human CRHR1 and CRHR2 genes. To determine the function of over-expressed CRHR cells, the intracellular cAMP levels in response to human UCN1 and UCN2 were measured and compared to the expression of CRHR1 and CRHR2 mRNA in each clone.
(§3) Human CRHR1 cells were cultured in DMEM 1× (Gibco, 93-0152DK) supplemented with 10% FBS, 1 mM sodium pyruvate, 1×MEM NEAA, 1×GlutaMAX, 10 mM HEPES, and 800 μg/ml G418. Human CRHR2 cells were cultured at the same media (DMEM 1×, 10% FBS, 1 mM sodium pyruvate, 1×MEM NEAA, 1×GlutaMAX, 10 mM HEPES) in the presence of 0.5 ug/mL puromycin. Cultured cells were grown to 90% confluency and harvested. The cells were frozen at 10×10e6/ml in a mixture of […] fetal bovine serum plus 7% DMSO and stored in liquid nitrogen until use.
(§4) On the day of the assay, the frozen cells were thawed and diluted in assay buffer (Phenol Red free MEM (Corning, 17-305-CV, lot #32121010), 0.1% Casein (Sigma C4765, lot #SLCG2120), 5 mM HEPES pH 7.4 containing 0.25 mM IBMX). 10 ul of human CRHR1 cells (25,000 cells) or 10 μL of human CRHR2 cells (5,000 cells) were dispensed into each well of white poly-D-lysine coated 384-well plates (Corning cat #354661). Test compounds diluted in DMSO were added (200 nL/well) in a 1:3 dilution series using ECHO acoustic liquid handler (Beckman). The mixture of cells and test compounds were incubated at 37° C. for 1 hour for the hCRHR1 plate, while the CRHR2 plates were incubated at room temperature for 30 min.
(§5) The amount of intracellular cAMP was quantitated using HTRF technology (Homogeneous Time Resolved Fluorescence; Cisbio) as per vendor instructions. Briefly, 10 uL CAMP-d2 conjugate and 10 uL anti-CAMP-cryptate conjugate in lysis buffer were incubated with the treated cells at room temperature for 60 min. The HTRF signal was immediately detected using an Envision plate reader (Perkin-Elmer) to calculate the ratio of fluorescence at 665 to 620 nm.
(§6) Raw fluorescence data for concentration curves of the peptides in Table 2 and Table 3 were converted to cAMP amount (pmol/well) using a cAMP standard curve generated for each experiment.

human CRHR1 = target: T2, human CRHR1 (Homo sapiens, UniProt P34998); assay: Human CRHR1 cAMP assay (HTRF) in HEK293 cells stably expressing human CRHR1; assay type: cell-based; settings: HEK293 cells overexpressing human CRHR1; relative EC50, maximum 66 nM human UCN1; mean ± SE; read-out: hCRHR1 cAMP EC50 (pM, ± SE)
T2 construct: expressed in transfected cells
T2 sequence (P34998 24-415): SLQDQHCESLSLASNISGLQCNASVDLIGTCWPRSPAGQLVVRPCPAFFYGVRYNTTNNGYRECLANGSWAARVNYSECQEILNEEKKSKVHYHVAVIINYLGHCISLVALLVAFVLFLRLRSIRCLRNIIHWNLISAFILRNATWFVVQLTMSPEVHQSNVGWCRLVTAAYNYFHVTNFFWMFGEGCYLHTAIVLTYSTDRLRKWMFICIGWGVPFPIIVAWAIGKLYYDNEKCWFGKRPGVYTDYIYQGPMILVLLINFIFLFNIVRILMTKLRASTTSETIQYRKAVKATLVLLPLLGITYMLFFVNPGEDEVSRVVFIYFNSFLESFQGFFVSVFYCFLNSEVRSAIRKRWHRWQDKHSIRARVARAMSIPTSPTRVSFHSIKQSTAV
Description: as §1, §2, §3, §4, §5, §6

SMILES | EC50 (human CRHR2) [pM] | EC50 (human CRHR1) [pM]
CC[C@H](C)[C@H](NC(=O)[C@H](CCC(=O)O)NC(=O)[C@H](C)NC(=O)[C@H](C)NC(=O)[C@H](CCC(=O)O)NC(=O)[C@H](CCCCNC(=O)CC[C@H](NC(=O)CNC(=O)[C@H](CCCCN)NC(=O)[C@H](CCC(=O)O)NC(=O)[C@H](CCCCN)NC(=O)[C@H](CCC(=O)O)NC(=O)[C@H](CCCCN)NC(=O)[C@H](CCC(=O)O)NC(=O)CCCCCCCCCCCCCCCCCCC(=O)O)C(=O)O)NC(=O)[C@H](C)NC(=O)[C@H](CCC(N)=O)NC(=O)[C@H](CCC(N)=O)NC(=O)[C@H](CCCNC(=N)N)NC(=O)[C@H](C)NC(=O)[C@H](CCCCN)NC(=O)[C@H](CCC(=O)O)NC(=O)[C@H](C)NC(=O)[C@H](CCCNC(=N)N)NC(=O)[C@H](CCC(=O)O)NC(=O)[C@H](CCC(N)=O)NC(=O)[C@H](CCC(=O)O)NC(=O)[C@H](CC(C)C)NC(=O)[C@@H](NC(=O)[C@H](CCCCN)NC(=O)[C@H](CCC(N)=O)NC(=O)[C@H](CC(C)C)NC(=O)[C@](C)(CC(C)C)NC(=O)C(C)(C)NC(=O)[C@@H](NC(=O)[C@@H]1CCCN1C(=O)[C@@H](NC(=O)[C@H](CC(=O)O)NC(=O)[C@](C)(CC(C)C)NC(=O)[C@H](CO)NC(=O)[C@@H](NC(=O)[C@@H](NC(=O)[C@@H](NC(=O)[C@H](CO)NC(=O)[C@@H]1CCCN1C(=O)[C@H](CO)NC(=O)CNC(C)=O)[C@@H](C)CC)C(C)C)[C@@H](C)O)C(C)C)[C@@H](C)O)[C@@H](C)CC)C(=O)N[C@@H](CC(C)C)C(=O)N[C@@H](C)C(=O)N[C@@H](CCC(N)=O)C(=O)N[C@H](C(N)=O)C(C)C [SEQ ID NO: 6, Ac-GSPSIVTS αMeL DVPT Aib αMeL LQKILEQERAEKARQQAK(γE-GKEKEKE-CO-(CH2)18-CO2H)EAAEILAQV-NH2] | 10.1 ± 2.5 | > 1e+07
CC[C@H](C)[C@H](NC(C)=O)C(=O)N[C@H](C(=O)N[C@H](C(=O)N[C@@H](CO)C(=O)N[C@@](C)(CC(C)C)C(=O)N[C@@H](CC(=O)O)C(=O)N[C@@H](C(=O)N1CCC[C@H]1C(=O)N[C@H](C(=O)NCC(=O)N[C@@](C)(CC(C)C)C(=O)N[C@@H](CC(C)C)C(=O)N[C@@H](CCC(N)=O)C(=O)N[C@H](C(=O)N[C@@H](CCCCN)C(=O)N[C@@H](CC(C)C)C(=O)N[C@@H](CCC(=O)O)C(=O)N[C@@H](CCC(N)=O)C(=O)N[C@@H](CCC(=O)O)C(=O)N[C@@H](CCCNC(=N)N)C(=O)N[C@@H](C)C(=O)N[C@@H](CCC(=O)O)C(=O)N[C@@H](CCCCN)C(=O)N[C@@H](C)C(=O)N[C@@H](CCCNC(=N)N)C(=O)N[C@@H](CCC(N)=O)C(=O)N[C@@H](CCC(N)=O)C(=O)N[C@@H](C)C(=O)N[C@@H](CCCCNC(=O)CC[C@H](NC(=O)COCCOCCNC(=O)CC[C@H](NC(=O)CCCCCCCCCCCCCCCCCCC(=O)O)C(=O)O)C(=O)O)C(=O)N[C@@H](CCC(=O)O)C(=O)N[C@@H](CC(N)=O)C(=O)N[C@H](C(=O)N[C@@H](CCC(=O)O)C(=O)N[C@H](C(=O)N[C@@H](CC(C)C)C(=O)N[C@@H](C)C(=O)N[C@@H](CCC(N)=O)C(=O)N[C@H](C(N)=O)C(C)C)[C@@H](C)CC)[C@@H](C)O)[C@@H](C)CC)[C@@H](C)O)C(C)C)[C@@H](C)O)C(C)C [SEQ ID NO: 30, Ac-IVTS αMeL D (D-Val) PTG αMeL LQIKLEQERAEKARQQAK(γE-(2-[2-(2-Amino-ethoxy)-ethoxy]-acetyl)-γE-CO-(CH2)18-CO2H)ENTEILAQV-NH2] (Ac-IVTS[αMeL]D[dV]PTG[αMeL]LQIKLEQERAEKARQQAK([γGlu-AEEA-γGlu-C20 diacid])ENTEILAQV-NH2) | 5.7 ± 0.1 | > 1e+07
